We go through 3 compounds from patent publication US20120220594A1, “METHODS FOR TREATING CANCER IN PATIENTS HAVING IGF-1R INHIBITOR RESISTANCE” (Bristol-Meyers Squibb Company, priority 2009, published 2012).

Assay [1] deals with Rh41 cells. In words: 3H-thymidine incorporation cell proliferation assay in parental Rh41 cells. The format is cell-based, human. An excerpt:
(§1) Human rhabdomyosarcoma cell line Rh41 was provided by Dr. Lee Helman and grown in RPMI medium plus GLUTAMAX® supplemented with 10% fetal bovine serum (FBS), 10 mmol/L HEPES, penicillin, and streptomycin.
A general note: Uptake of a labelled nucleoside into DNA is a usual measure of proliferation.

For assay [2], the system named is Rh41-807R cells. In words: 3H-thymidine incorporation cell proliferation assay in BMS-754807-resistant Rh41-807R cells. The format is cell-based, human.
Source text: as §1

Assay [3] relates to Rh41-MAB391R cells. In words: 3H-thymidine incorporation cell proliferation assay in MAB391-resistant Rh41-MAB391R cells. Format: cell-based, human. Conditions: for IC50: read-out: IC50 (nM) Rh41-MAB391R. The source says: Human rhabdomyosarcoma cell line Rh41 was provided by Dr. Lee Helman and grown in RPMI medium plus GLUTAMAX® supplemented with 10% fetal bovine serum (FBS), 10 mmol/L HEPES, penicillin, and streptomycin. To develop acquired resistant cells to either BMS-754807, or mAB391 (R&D Systems, Inc., Minneapolis, Minn.), the sensitive Rh41 cells were exposed to the corresponding drug at the IC50 concentration and then at gradually increasing concentrations every other culture passage. The IC50 value to the compound was measured periodically during this treatment time until the resistance level reached a plateau.
(§2) Human rhabdomyosarcoma cell line Rh41 was chosen in this study to develop acquired resistance because it expresses IGF-1R (Huang et al., Cancer Res., 69(1):161-170 (Jan. 1, 2009)), the target of BMS-754807 and MAB391; and is sensitive to both drugs (Carboni et al., Proceedings of the 100th Annual Meeting of the American Association for Cancer Research, 2009 Apr. 18-22; Denver, Colo., Abstract No. 1742). The acquired-resistant Rh41-807R and Rh41-MAB391R cell lines were developed using a stepwise exposure to increasing concentrations of either IGF-1R/IR inhibitor BMS-754807 or IGF-1R antibody MAB391 for extended periods of time until a resistance plateau was reach. […];

Assay [4] relates to Rh41-807Rout cells. The experiment in a line: Cell proliferation assay in Rh41-807Rout cells (out of drug selection for 3 months). Format: cell-based, human. Conditions: out of drug selection for 3 months of passages.
Source text: as §2

Assay [5] deals with Rh41 xenograft tumors. The experiment in a line: In vivo xenograft tumor growth inhibition, Rh41. Conditions: Rh41 xenograft tumors in nude mice.
Experimental: (§3) Tumor volume was measured to assess tumor growth inhibition.
The subject of assay [6] is SW403 cells. The experiment in a line: 3H-thymidine incorporation cell proliferation assay in SW403 cells. Format: cell-based. Conditions: Homo sapiens, SW-403.
Experimental: (§4) Cells were plated at an optimized density in 96-well plates, incubated overnight at 37° C., and then exposed to a serial dilution of the drugs. After 72 hours incubation, cells were pulsed with 4 μCi/ml [^3H]-thymidine (Amersham Pharmacia Biotech, UK) for 3 hours, trypsinized, harvested onto […] ®-96 GF/B plates (PerkinElmer, Boston, Mass.); scintillation was measured on a TOPCOUNTO NXT (Packard, Conn.). […] The mean IC50 and standard deviation from multiple tests for each cell line were calculated.
In assay [7] the test system is MCF-7-807R cells. The experiment in a line: 3H-thymidine incorporation cell proliferation assay in MCF-7-807R cells.
Experimental: as §4
The subject of assay [8] is Rh41-807R xenograft tumors. The experiment in a line: In vivo xenograft tumor growth inhibition, Rh41-807R. The settings on record: Rh41-807R xenograft tumors in nude mice.
Experimental: as §3
Assay [9] relates to GEO-807R cells. The experiment in a line: 3H-thymidine incorporation cell proliferation assay in GEO-807R cells. Format: cell-based.
Experimental: as §4
Assay [10] deals with Rh41 cells with PDGFR-α knockdown. The experiment in a line: Proliferation assay in Rh41 cells transfected with PDGFR-α specific siRNA. The settings on record: Rh41 sensitive parental cells.
Experimental: (§5) RISC-free siRNA was transfected as the negative control (Dharmacon). Following the addition of the drugs, cells were incubated at 37° C. for 72 hours before cell growth was measured by incorporation of ^3H-thymidine as described for in vitro cellular proliferation assays.
The subject of assay [11] is Rh1 cells. The experiment in a line: 3H-thymidine incorporation cell proliferation assay in Rh1 cells. The format is cell-based. Conditions: Homo sapiens, RH-1.
Experimental: as §4
For assay [12], the system named is PDGFRα RNA in Rh41 cells. In words: Induction of PDGFRα expression in sensitive parental Rh41 cells (qRT-PCR). The format is cell-based, human. The method, then:
FIGS. 3A-F show expression pattern comparisons of selected genes/proteins that uniquely changed expression only in 807R or in MAB391R. […] Insert: PDGFR-α protein expression pattern as detected by western blot. […] Cells starved for 24 hr, then stimulated with or without 50 ng/ml PDGF ligand fro 5 min. Cells were lyzed and 30 ug of total protein was used for western blot analyses. […] Insert: AXL protein expression as detected by western blot. […] Cells treated with 10 nM and 50 nM of BMS-754807 for 1, 2, 4, 8 and 24 hrs. PDGFRα RNA levels were measured by qRT-PCR and compared to the untreated time 0 control.
Comparing genes expression profiles, the inventors found there were some key signaling pathways that were differentially expressed in Rh41-807R and Rh41-MAB391R cells. An interesting example was PDGFR-α, which had >89 fold increase in RNA expression in Rh41-807R cells but not in Rh41-MAB391R compared to the parental; and the induction of PDGFR-α was persistent even in cells out of BMS-754807 selection for 3 months (FIG. 3A). The expression pattern was also confirmed at protein levels (FIG. 3A); PDGFR-α was also constitutively activated in Rh41-807R cells (FIG. 3B). […] Other genes such as c-KIT, FGFR2 and EPHA3 had similar expression pattern as PDGFR-α (FIG. 3C). Several Eph receptor family members such as EPHA3, EPHA4 and EPHB2 as well as ligand EFNA3 were overexpressed in 807R.
Background: Quantitative PCR measures a nucleic acid by following its amplification.

Assay [13] relates to Rh41-807R cells with PDGFR-α knockdown. The experiment in a line: Proliferation assay in Rh41-807R cells transfected with PDGFR-α specific siRNA. The settings on record: Rh41-807R cells treated with PDGFR-α siRNA.
Experimental: as §5
Assay [14] relates to Geo cells. The experiment in a line: 3H-thymidine incorporation cell proliferation assay in Geo cells. The format is cell-based.
Experimental: as §4
For assay [15], the system named is SW403-807R cells. In words: 3H-thymidine incorporation cell proliferation assay in SW403-807R cells. The format is cell-based.
Experimental: as §4
Assay [16] deals with Rh1-807R cells. The experiment in a line: 3H-thymidine incorporation cell proliferation assay in Rh1-807R cells. Format: cell-based.
Experimental: as §4
Assay [17] concerns Rh41-807R cells. Conditions: 1:1 ratio, Combination Index less than 1 indicates synergy. An excerpt:
A dilution of ratios drug combination method was used in cellular proliferation assays to test the IC50 values of single agent (A or B) as well as in combination (a or b). […] Combination Index=(a/A+b/B).

Where two headings read alike, the source gives them in different places. Where only a bound is given, the exact number is not on record here.

A word on the IC50: it is the concentration at which inhibition is half-maximal. On to `Cc1cc(N2CCOCC2)cc2[nH]c(-c3c(NC[C@@H](O)c4cccc(Cl)c4)cc[nH]c3=O)nc12` [BMS-536924], for which the IC50 in [1] (Rh41 parental cells, 72 h, 3H-thymidine incorporation, Table 1, read-out: IC50 (nM) Rh41) is 31 nM; in assay [2] (Rh41-807R cells, 72 h, 3H-thymidine incorporation, Table 1, read-out: IC50 (nM) Rh41-807R) it was above 1000 nM; in [3] (Rh41-MAB391R cells, 72 h, 3H-thymidine incorporation, Table 1), 90.2 ± 2.2 nM.
Turning to `C[C@@]1(C(=O)Nc2ccc(F)nc2)CCCN1c1nc(Nc2cc(C3CC3)[nH]n2)c2cccn2n1` [BMS-754807, (2S)-1-(4-((5-cyclopropyl-1H-pyrazol-3-yl)amino)pyrrolo[2,1-f][1,2,4]triazin-2-yl)-N-(6-fluoro-3-pyridinyl)-2-methyl-2-pyrrolidinecarboxamide], the “resistance of Rh41-807Rout” value in assay [4] is “significant level of resistance”. Also, the “tumor growth inhibition (TGI)” value in assay [5] is on record as 73%; in assay [8] it was 35%. The IC50 in assay [1] (Homo sapiens, Rh41, read-out: IC50 (nM) Rh41) was 5 nM; in assay [1] (Homo sapiens, Rh41, read-out: IGF-1R inhibitor Compound (IC50)), 5 nM; in [1] (Homo sapiens, Rh41, read-out: Parental IC50 (nM)), 5 nM; in assay [6] (SW403 cells, Table 9, read-out: IGF-1R inhibitor Compound (IC50)) it was 220 nM; in assay [6] (SW403 parental cells, Table 8, read-out: Parental IC50), 220 nM; in assay [2] (Homo sapiens, Rh41), 811 nM. Further, the IC50 in assay [2] (Homo sapiens, read-out: IC50 (nM) Rh41-807R) was found to be 811 nM; in [2] (Homo sapiens, read-out: IGF-1R inhibitor Compound (IC50)), 811 nM; in [3] (Homo sapiens) it was 27 nM; in [7] (Homo sapiens, MCF7), 735 nM; in [7] (read-out: IGF-1R inhibitor Compound (IC50)), 972 ± 400 nM; in assay [9] (BMS-754807-resistant Geo cells, maintenance conc. 2000, Table 8, read-out: IC50), 1230 nM. For the same compound, the IC50 in [9] (GEO-807R cells, Table 9, read-out: IGF-1R inhibitor Compound (IC50)) worked out at 1230 ± 251 nM; in [11] (Rh1 cells, Table 9, read-out: IGF-1R inhibitor Compound (IC50)), 27 nM; in [11] (Rh1 parental cells, Table 8, read-out: Parental IC50) it was 27 nM; in assay [14] (Geo cells, Table 9, read-out: IGF-1R inhibitor Compound (IC50)) it was 350 nM; in [14] (Geo parental cells, Table 8, read-out: Parental IC50) it was 350 nM; in assay [15] (Homo sapiens, SW-403, BMS-754807-resistant SW403 cells, maintenance conc. 500, Table 8, read-out: IC50) it was 979 nM. In addition, the 50% inhibitory concentration (IC50) in assay [15] (SW403-807R cells, Table 9, read-out: IGF-1R inhibitor Compound (IC50)) is 979 ± 528 nM; in assay [16] (Homo sapiens, RH-1, BMS-754807-resistant Rh1 cells, maintenance conc. 120, Table 8, read-out: IC50) it was 1800 nM; in [16] (Rh1-807R cells, Table 9, read-out: IGF-1R inhibitor Compound (IC50)), 1800 ± 1390 nM. Further, the Relative resistance in assay [2] (fold change in IC50, resistant vs parental Rh41 cells) is reported as 162X; in assay [7] (fold change in IC50, resistant vs parental MCF-7 cells), 46X; in [9] (fold change in IC50, resistant vs parental Geo cells) it was 3.5X; in assay [15] (fold change in IC50, resistant vs parental SW403 cells), 4.5X; in assay [16] (fold change in IC50, resistant vs parental Rh1 cells), 66.5X. For the same compound, in assay [3] (growth inhibited to a comparable level as the parental cells), the “activity in the Rh41-MAB391R model” value is given as “relatively active”. The “sensitivity between untransfected, control siRNA and PDGFR-α-specific siRNA transfected cells” value in assay [10] is “no significant differences in the sensitivity”. Besides, the “time at which induction of PDGFRα RNA was seen after treatment” value in assay [12] (Rh41 cells) worked out at 4 h. The “induction of PDGFR-α expression” value in assay [12] (Rh41 sensitive parental cells, 10 nM and 50 nM) was “dose-dependent”. Moreover, the “response to growth inhibition after PDGFR-α siRNA” value in assay [13] is “sensitive to growth inhibition”.
Regarding `Cc1ccc(NC(=O)c2ccc(CN3CCN(C)CC3)cc2)cc1Nc1nccc(-c2cccnc2)n1` [imatinib], in [17], the “activity in growth inhibition in combination with BMS-754807” value is on record as “synergistic activity”.
